Experimental data published in patent US20110065796A1 (SHIRE LLC, priority 2009, published 2011).
Where a name gives a salt, the structure may show the parent alone. Read-outs that look alike come from different tables or passages of the source.

Legend:
human α-2A adrenoceptor = target: T1, human α-2A adrenoceptor (Homo sapiens, UniProt P08913); assay: α-2A adrenoceptor binding assay ([3H] RX821002 competition, recombinant CHO cells); conditions: [3H] RX821002 (1 nM)
T1 construct: expressed in transfected cells; host or cells: CHO cells
T1 sequence (P08913 1-465): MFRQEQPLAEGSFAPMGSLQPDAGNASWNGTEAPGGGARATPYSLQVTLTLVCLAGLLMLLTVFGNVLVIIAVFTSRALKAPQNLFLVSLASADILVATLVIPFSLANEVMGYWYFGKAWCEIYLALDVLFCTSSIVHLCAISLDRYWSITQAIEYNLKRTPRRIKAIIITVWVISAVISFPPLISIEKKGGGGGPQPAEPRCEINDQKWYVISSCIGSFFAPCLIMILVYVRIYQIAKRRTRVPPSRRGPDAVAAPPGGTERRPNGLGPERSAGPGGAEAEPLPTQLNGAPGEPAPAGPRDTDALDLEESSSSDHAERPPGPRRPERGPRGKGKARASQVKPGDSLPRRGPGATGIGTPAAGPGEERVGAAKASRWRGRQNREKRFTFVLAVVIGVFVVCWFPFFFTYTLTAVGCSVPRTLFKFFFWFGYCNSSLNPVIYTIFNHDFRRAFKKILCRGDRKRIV
Experimental: The activation of this receptor is responsible for its intended therapeutic effect.
The binding assay methodology employed in this study followed that described by Langin et al. (Eur. J. Pharmacol. 167:95-104, 1989) and used human recombinant CHO cells expressing α-2 adrenoceptors. The competitive binding ligand was [3H] RX821002 (1 nM) which has a high affinity for the alpha-2A subtype.

[1] = Prodrug stability in simulated intestinal fluid; conditions: 37° C., pH 6.8, HPLC
Experimental: (§1) The remaining concentrations of the prodrugs were then assayed by H PLC.

[2] = system: gastrointestinal transit of a charcoal meal in the rat; assay: Charcoal propulsion test (gut motility) in rat; assay type: in vivo; conditions: oral
Experimental: The effect of a drug on gut motility can be studied by means of the charcoal propulsion test.
The method used was based on that described by Takemori et al. (J. Pharmacol. Exp. Ther. 169:39, 1969). Test treatments were administered orally 60 minutes prior to an oral dose of a 10% suspension of charcoal in 2.5% gum Arabic (2 ml/kg). Twenty minutes after dosing with charcoal, the rats were sacrificed and the entire gastrointestinal tract was removed quickly and carefully. The distance that the charcoal meal had traveled toward the caecum was measured and expressed as a percentage of the total gut length.

[3] = Prodrug stability in freshly withdrawn porcine intestinal fluid; assay type: in vitro ADME; conditions: for Prodrug remaining at 3 h: porcine intestinal fluid pH 6.8, 37° C., in % (unit assumed)
Excerpt: Many of the peptidases in the intestinal lumen may not be present in the USP simulated intestinal fluid preparations previously described. […] The prodrugs evaluated were selected on the basis of adequate pharmacokinetics (see Example 8).

[4] = Pharmacokinetics in rat hepatic portal and tail veins after oral administration; assay type: in vivo
Experimental: Rats were surgically prepared under isofluorane anaesthesia by attaching a silicon catheter to the portal vein then exteriorising it at the nape of the neck with a blood collection port attached.
At each sampling time serial point blood samples (approximately 0.2 mL) were taken simultaneously from the lateral tail vein cannula and the hepatic portal cannula. After collection of the final blood sample each animal was killed by cervical dislocation. Blood samples were collected at 15, 30 minutes and 1, 2, 4, 8 and 24 hours post dose.
Pharmacokinetic parameters in portal and systemic plasma were derived by non-compartmental analysis (linear/logarithmic trapezoidal) using WinNonlin (Version 4.1) software.

[5] = Comparative pharmacokinetic screening study in the monkey (relative Cmax of guanfacine); conditions: for prodrug levels in plasma (in words): oral gavage, monkey screening study
Experimental: Blood samples were taken on 4 sampling occasions at various times up to 6 hours after administration and submitted to analysis for the parent drug and prodrug using a qualified LC-MS-MS assay.

[6] = Prodrug stability in simulated gastric fluid; conditions: 37° C., pH 1.1, HPLC
Experimental: as §1

[7] = Comparative bioavailability study of guanfacine in monkeys given guanfacine or prodrug conjugates; assay type: in vivo, cynomolgus monkey; conditions: oral, monkey
Experimental: The characteristics of the test animals are set out in Table 13.
The following pharmacokinetic parameters derived from the plasma analytical data were determined using Win Nonlin;

[8] = Comparative bioavailability study in monkeys in the fasted or fed state; assay type: in vivo, cynomolgus monkey; conditions: for Cmax: male, cynomolgus monkey, plasma, po, 0.5 mg/kg, read-out: mean Cmax prodrug
Experimental: Five male cynomolgus monkeys were used. Food was withdrawn from animals in fasted groups from the evening of the day prior to dosing until approximately 4 hours after dosing.
The formulations were prepared on the day of dosing and administered orally as soon as practicable up to a maximum of 2 hours after formulation.
Blood samples (0.5 mL) were collected from all animals pre-dose and at 0.5, 1, 2, 3, 4, 6, 8 10, 12, 16 and 24 hours after dosing.
Following processing, the resultant plasma was frozen and analysed by a qualified method. Pharmacokinetic evaluation was performed using a validated pharmacokinetic software package.

[9] = cited from earlier work
[10] = Study 2, dose 0.1 mg/kg guanfacine free base equivalents
[11] = Study 2, dose 0.3 mg/kg guanfacine free base equivalents
[12] = Study 2, dose 0.5 mg/kg guanfacine free base equivalents
[13] = hepatic portal vein plasma, po, 1 mg/kg, read-out: Hepatic portal vein Prodrug AUC
[14] = hepatic portal vein plasma, po, 1 mg/kg, read-out: Hepatic portal vein Prodrug Cmax
[15] = tail vein (systemic) plasma, po, 1 mg/kg, read-out: Tail vein Prodrug AUC
[16] = tail vein (systemic) plasma, po, 1 mg/kg, read-out: Tail vein Prodrug Cmax
[17] = Study 1, dose 0.1 mg/kg guanfacine free base equivalents
[18] = Study 1, dose 0.3 mg/kg guanfacine free base equivalents
[19] = Study 1, dose 1 mg/kg guanfacine free base equivalents
[20] = Study 1, dose 3 mg/kg guanfacine free base equivalents
[21] = Study 1, dose 5 mg/kg guanfacine free base equivalents
[22] = Fasted, 0.5 mg/kg guanfacine equivalent dose, oral

% change in GI transit vs vehicle [2, 17] | % change in GI transit vs vehicle [2, 18] [%] | % change in GI transit vs vehicle [2, 19] [%] | % change in GI transit vs vehicle [2, 20] [%] | % change in GI transit vs vehicle [2, 21] [%] | Structure (SMILES) | Ki (human α-2A adrenoceptor) [µM] | % prodrug remaining following incubation for 2 h in simulated intestinal fluid pH 6.8 [1] [%] | % change in GI transit vs vehicle [2, 10] [%] | % change in GI transit vs vehicle [2, 11] [%] | stability in porcine intestinal fluid (in words) [3] | Prodrug remaining at 3 h [3] | AUC [4, 13] [ng·h/mL] | Cmax [4, 14] [ng/mL] | AUC [4, 15] [ng·h/mL] | Cmax [4, 16] [ng/mL] | prodrug levels in plasma (in words) [5] | % prodrug remaining following incubation for 1 h in simulated gastric fluid pH 1.1 [6] [%] | further results
– | – | – | – | – | CNCC(=O)N[C@@H](COC(=O)NC(=N)NC(=O)Cc1c(Cl)cccc1Cl)C(=O)O [Compound 61, Guanfacine ((S)-Serine-Sarcosine) Carbamate] | 10 | 96 | −8 | −25 | intermediate stability | 66.86 ± 2.10 | 51.8 | 43.4 | 5.09 | 7.07 | detectable prodrug levels in plasma | 92 | % change in GI transit vs vehicle [2, 12]: −31%; comparative systemic exposure to guanfacine vs guanfacine at an equimolar dose (in words) ([4]; oral): similar
+3% | −30 | −42 | −42 | −42 | CC(C)[C@H](N)C(=O)NCCC(=O)NC(=N)NC(=O)Cc1c(Cl)cccc1Cl [Compound 2, Guanfacine (β-Alanine-(S)-Valine) Amide] | 1.2 | 89 | – | – | intermediate stability | 77.8 | 19.2 | 46.4 | 2.67 | 4.2 | detectable prodrug levels in plasma | 75 | mean Cmax prodrug [8, 22]: BLQ; Cmax [8]: 2.15 ng/mL
−6% | −22 | −48 | −44 | −42 | CC(C)[C@@H](N)C(=O)N[C@@H](CCC(=O)NC(=N)NC(=O)Cc1c(Cl)cccc1Cl)C(=O)O [Compound 5, Guanfacine ((S)-γ-Glutamate-(R)-Valine) Amide] | 1.6 | 89 | – | – | – | 91.2 | 61 | 41.5 | 4.6 | 3.5 | – | 86 | plasma guanfacine profile (in words) [7]: sustained guanfacine concentrations; % change in GI transit vs vehicle ([2]; Study 1, dose 1.7 mg/kg guanfacine free base equivalents): −50%
– | – | – | – | – | CC(C)[C@@H](N)C(=O)NCCC(=O)NC(=N)NC(=O)Cc1c(Cl)cccc1Cl [Compound 11, Guanfacine (β-Alanine-(R)-Valine) Amide] | – | 104 | – | – | high stability | 91.3 ± 2.6 | – | – | – | – | detectable prodrug levels in plasma | 79 | –
– | – | – | – | – | C[C@@H](N)C(=O)N[C@@H](CCC(=O)NC(=N)NC(=O)Cc1c(Cl)cccc1Cl)C(=O)O [Compound 41, Guanfacine ((S)-γ-Glutamate-(R)-Alanine) Amide] | 1.7 | 83 | – | – | high stability | 89.70 ± 3.60 | 43.5 | 31.9 | 8 | 6.14 | detectable prodrug levels in plasma | 70 | –
– | – | – | – | – | CNCC(=O)N[C@H](C(=O)O)[C@@H](C)OC(=O)NC(=N)NC(=O)Cc1c(Cl)cccc1Cl [Compound 63, Guanfacine ((R,S)-Threonine-Sarcosine) Carbamate] | – | 99 | 0 | −13 | high stability | 95.04 ± 9.25 | 66.5 | 23.7 | 20.2 | 9.37 | detectable prodrug levels in plasma | 86 | % change in GI transit vs vehicle [2, 12]: −49%; comparative systemic exposure to guanfacine vs guanfacine at an equimolar dose (in words) ([4]; oral): similar
– | – | – | – | – | CC(C)[C@H](N)C(=O)N[C@@H](COC(=O)NC(=N)NC(=O)Cc1c(Cl)cccc1Cl)C(=O)O [Compound 17, Guanfacine ((S)-Serine-(S)-Valine) Carbamate] | – | 78 | – | – | very unstable | – | – | – | – | – | total absence of prodrug in the plasma | 93 | –
−52% | −55 | −47 | – | – | N=C(N)NC(=O)Cc1c(Cl)cccc1Cl [Guanfacine, N-Amidino-2-(2,6-dichlorophenyl)acetamide monohydrochloride, reference compound] | – | – | −41 | −56 | – | – | – | – | – | – | – | – | % change in GI transit vs vehicle ([2]; Study 2, dose 0.03 mg/kg guanfacine free base equivalents): −13%; reduction in the distance traveled by the charcoal plug within 20 minutes, compared to control group ([2]; 0.1 mg base/kg): 41-52%; bioavailability of guanfacine in man [9]: > 80%; bioavailability ([5]; cynomolgus monkey, in vivo, po): 35%

Structure (SMILES) | % change in GI transit vs vehicle [2, 17] | % change in GI transit vs vehicle [2, 18] [%] | % change in GI transit vs vehicle [2, 19] [%] | % change in GI transit vs vehicle [2, 20] [%] | % change in GI transit vs vehicle [2, 21] [%] | Ki (human α-2A adrenoceptor) [µM] | % prodrug remaining following incubation for 2 h in simulated intestinal fluid pH 6.8 [1] [%] | % change in GI transit vs vehicle [2, 10] [%] | % change in GI transit vs vehicle [2, 11] [%] | stability in porcine intestinal fluid (in words) [3] | Prodrug remaining at 3 h [3] | AUC [4, 13] [ng·h/mL] | Cmax [4, 14] [ng/mL] | AUC [4, 15] [ng·h/mL] | Cmax [4, 16] [ng/mL] | prodrug levels in plasma (in words) [5] | % prodrug remaining following incubation for 1 h in simulated gastric fluid pH 1.1 [6] [%] | further results
CC(C)[C@H](NC(=O)CCCC(=O)NC(=N)NC(=O)Cc1c(Cl)cccc1Cl)C(=O)O [Compound 1, Guanfacine (Glutaryl-(S)-Valine) Amide] | −9% | −6 | −45 | −50 | −53 | 7.2 | 92 | – | – | high stability | 100.6 | – | – | – | – | – | 80 | plasma guanfacine profile (in words) [7]: sustained guanfacine concentrations; AUC ([4]; hepatic portal vein plasma, oral, 0.5 mg/kg (footnote *), read-out: Hepatic portal vein Prodrug AUC): 159 ng·h/mL; Cmax ([4]; hepatic portal vein plasma, oral, 0.5 mg/kg (footnote *), read-out: Hepatic portal vein Prodrug Cmax): 56.3 ng/mL; AUC ([4]; tail vein (systemic) plasma, oral, 0.5 mg/kg (footnote *), read-out: Tail vein Prodrug AUC): 29.6 ng·h/mL; Cmax ([4]; tail vein (systemic) plasma, oral, 0.5 mg/kg (footnote *), read-out: Tail vein Prodrug Cmax): 8.26 ng/mL; Cmax [8, 22]: 9.23 ng/mL; Cmax ([8]; Fed, 0.5 mg/kg guanfacine equivalent dose, oral): 7.19 ng/mL
